# Assay results taken from US20240391895A1, “PYRIDAZINE-CONTAINING COMPOUND AND MEDICINAL USE THEREOF” (Tuojie Biotech (Shanghai) Co., Ltd., priority 2020, published 2024).
# Target: T1, NLRP3 inflammasome (Homo sapiens, UniProt Q96P20)
# T1 construct: Monocytes were then isolated from the PBMCs using a human pan-monocyte isolation kit; endogenous in cells; host or cells: primary human monocytes isolated from PBMCs of human blood
# Assay: Inhibitory activity against NLRP3 inflammasome in human monocytes (IL-1b ELISA)
# Assay type: cell-based
# Details: human monocytes from PBMCs; compound 0.5 h, LPS 100 ng/mL 3.5 h, ATP 5 mM 45 min; IL-1b in supernatant by ELISA; (n = 2) cells are means of n tests; read-out: IL-1β inhibition (EC50)/nM
# Experimental: Assays for Inhibitory Activity Against NLRP3 Inflammasome in Human Monocytes
# Day 1: PBMCs were separated from human blood by density gradient centrifugation and washed twice with PBS containing 2% FBS (centrifuged at 300 g for 8 min). Monocytes were then isolated from the PBMCs using a human pan-monocyte isolation kit and an LS column. The cells were stained with CD14-FITC at 4° C. for 30 min, and FACS was run on BD FACS Verse to analyze the purity of the pan-monocytes. The cells were counted, and the cell density was adjusted to 2.5×10^5 cells/mL. The cells were seeded into a 96-well plate at 2.5×10^4 monocytes/[…] suspension/well. The plate was incubated overnight at 37° C. in 5% CO2.
# Day 2: Test compounds were pre-titrated so that all titration points, including the DMSO control well, contained 0.1% DMSO. […] At the end of the 3.5 hours' incubation, the cells were stimulated (by adding […] of 40 mM ATP (the final concentration would be 5 mM) to treat the cells for 45 min). […] of supernatant was transferred to a new plate and stored at […]
# Day 3: The supernatant solution was 20-fold diluted for human monocyte IL-1b ELISA according to the manufacturer's instructions.
# Days 3-4: ELISA experiment • 1) Day 3: A capture antibody (diluted with coating buffer) was added to the plate at […]. The plate was sealed and incubated overnight at 4° C. • 2) Day 4: The liquids in the wells were pipetted off, and the plate was washed 3 times with wash buffer, 300 μL/≥each time. After the last wash, the plate was inverted and blotted dry with absorbent paper to remove any residual buffer.
# 3) A test dilution was added to the plate at ≥200 μL/well. The plate was incubated at room temperature for 1 h. • 4) The plate was blotted dry/washed as in step 2. • 5) Standard and sample dilutions were prepared with the test dilution. • 6) Each standard, sample and control was added to a corresponding well at […]. The plate was sealed and incubated at room temperature for 2 h. • 7) The plate was blotted dry/washed as in step 2, except that it was washed 5 times. • 8) The assay antibody was diluted with the test dilution and added to wells at […]/well. • 9) The plate was sealed and incubated at room temperature for 1 h. • 10) The plate was blotted dry/washed as in step 2, except that it was washed 5 times. • 11) The enzyme reagent was diluted with the test dilution and added to wells at […]/well. The plate was sealed and incubated at room temperature for 30 min. • 12) The plate was blotted dry/washed, and the step of soaking for 30 s-1 min was used. The plate was washed 7 times in total. • 13) A substrate solution was added at […]/well. The plate (without plate sealant) was incubated at room temperature in the dark for 30 min. • 14) A stop solution was added at […]. • 15) The absorbance at 450 nm was read using the instrument Envision within 30 min of stopping the reaction. If a wavelength correction was available, the absorbance at 570 nm would be subtracted from the absorbance at 450 nm.
# T1 sequence (Q96P20 whole entry): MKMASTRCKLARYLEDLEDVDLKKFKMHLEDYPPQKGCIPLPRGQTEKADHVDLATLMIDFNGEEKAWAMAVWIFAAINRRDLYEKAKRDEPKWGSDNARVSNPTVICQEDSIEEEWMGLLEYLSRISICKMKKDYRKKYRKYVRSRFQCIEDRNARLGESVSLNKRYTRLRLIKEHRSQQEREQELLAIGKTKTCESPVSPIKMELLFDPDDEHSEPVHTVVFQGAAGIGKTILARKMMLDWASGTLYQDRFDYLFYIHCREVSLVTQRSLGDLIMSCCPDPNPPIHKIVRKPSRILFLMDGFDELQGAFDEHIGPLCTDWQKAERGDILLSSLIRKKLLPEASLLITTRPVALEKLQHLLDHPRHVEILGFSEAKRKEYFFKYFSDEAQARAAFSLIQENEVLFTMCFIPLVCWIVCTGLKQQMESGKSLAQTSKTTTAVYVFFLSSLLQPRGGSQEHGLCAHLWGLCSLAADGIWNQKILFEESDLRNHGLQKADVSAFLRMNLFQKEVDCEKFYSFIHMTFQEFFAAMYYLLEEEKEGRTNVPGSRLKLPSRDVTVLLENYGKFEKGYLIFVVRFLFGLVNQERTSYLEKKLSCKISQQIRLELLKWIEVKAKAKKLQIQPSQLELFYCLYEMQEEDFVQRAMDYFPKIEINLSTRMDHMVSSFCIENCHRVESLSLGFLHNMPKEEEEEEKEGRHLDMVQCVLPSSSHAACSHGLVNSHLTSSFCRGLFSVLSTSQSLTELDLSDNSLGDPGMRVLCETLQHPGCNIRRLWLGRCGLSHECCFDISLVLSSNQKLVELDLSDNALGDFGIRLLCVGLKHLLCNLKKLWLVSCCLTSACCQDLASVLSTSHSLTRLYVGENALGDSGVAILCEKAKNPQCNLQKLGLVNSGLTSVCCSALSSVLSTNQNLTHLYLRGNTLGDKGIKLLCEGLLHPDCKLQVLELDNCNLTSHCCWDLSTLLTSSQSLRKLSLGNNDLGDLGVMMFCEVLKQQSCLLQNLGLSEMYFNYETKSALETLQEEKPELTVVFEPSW
row,Structure (SMILES),EC50
1,C[C@]1(O)C[C@@H](Nc2nnc(-c3ccc4c(c3O)CCC4)c3cnccc23)C1 [Compound 40],1.1 nM
2,C[C@]1(O)C[C@@H](Nc2nnc(-c3ccc(C4CC4)cc3O)c3ccccc23)C1 [Compound 30],13.4 nM
3,C[C@]1(O)C[C@@H](Nc2nnc(-c3c(O)cc(C(F)(F)F)cc3F)c3ccncc23)C1 [Compound 33],22 nM
4,C[C@]1(O)C[C@@H](Nc2nnc(-c3ccc(C(F)(F)F)cc3O)c3ncccc23)C1 [Compound 22],35.5 nM
5,C[C@]1(O)C[C@@H](Nc2nnc(-c3ccc4c(c3O)CCC4)c3ccccc23)C1 [Compound 31],1.08 nM
6,C[C@]1(O)C[C@@H](Nc2nnc(-c3c(O)cc(C(F)(F)F)cc3F)c3cnccc23)C1 [Compound 34],27 nM
7,C[C@]1(O)C[C@@H](Nc2nnc(-c3ccc(C(F)(F)F)cc3O)c3ccncc23)C1 [Compound 24],0.68 nM
8,"OCCN1CCC[C@@H](Nc2nnc(-c3ccc(C(F)(F)F)cc3O)c3c2COC3)C1 (racemic) [Compound 32, rac-(R)-2-(4-(1-(2-Hydroxyethyl)piperidin-3-yl)amino)-5,7-dihydrofuro[3,4-d]pyridazin-1-yl)-5-(trifluoromethyl)phenol]",0.71 nM
9,C[C@]1(O)C[C@@H](Nc2nnc(-c3ccc(C(F)(F)F)cc3O)c3c2CCOC3)C1 [Compound 43],20 nM
10,C[C@]1(O)C[C@@H](Nc2nnc(-c3ccc(C(F)(F)F)cc3O)c3ccccc23)C1 [Compound 15],4.25 nM
11,"Cc1cc(N[C@@H]2CCCN(CCO)C2)nnc1-c1ccc(C2CC2)cc1O (racemic) [Compound 36, rac-(R)-5-Cyclopropyl-2-(6-((1-(2-hydroxyethyl)piperidin-3-yl)amino)-4-methylpyridazin-3-yl)phenol]",127 nM
12,C[C@]1(O)C[C@@H](Nc2nnc(-c3ccc(C(F)(F)F)cc3O)c3cnccc23)C1 [Compound 25],12.8 nM
13,"CN1CCC[C@@H](Nc2ccc(-c3c(O)ccc4ccccc34)nn2)C1 [Compound 10, (R)-1-(6-((1-Methylpiperidin-3-yl)amino)pyridazin-3-yl)naphthalen-2-ol]",48.2 nM
14,Cc1c(N[C@H]2C[C@@](C)(O)C2)nnc(-c2ccc(C3CC3)cc2O)c1C [Compound 29],37.2 nM
15,Cc1c(N[C@H]2C[C@@](C)(O)C2)nnc(-c2ccc3c(c2O)CCC3)c1C [Compound 21],4.62 nM
16,C[C@]1(O)C[C@@H](Nc2nnc(-c3ccc(C(F)(F)F)cc3O)c3cccnc23)C1 [Compound 23],2.51 nM
17,C[C@]1(O)C[C@@H](Nc2nnc(-c3ccc(C(F)(F)F)cc3O)c3c2COCC3)C1 [Compound 42],20 nM
18,C[C@]1(O)C[C@@H](Nc2nnc(-c3c(O)cc(C(F)(F)F)cc3F)c3ccccc23)C1 [Compound 44],24 nM
19,Cc1cc(N[C@H]2C[C@@](C)(O)C2)nnc1-c1ccc(C2CC2)cc1O [Compound 28],17.4 nM
20,C[C@]1(O)C[C@@H](Nc2nnc(-c3ccc4c(c3O)CCC4)c3cccnc23)C1 [Compound 38],3 nM
21,Cc1cc(C(F)(F)F)cc(O)c1-c1nnc(N[C@H]2C[C@@](C)(O)C2)c2ccccc12 [Compound 46],10.1 nM
22,"Cc1cc(N[C@@H]2CCCN(C)C2)nnc1-c1ccc(C(F)(F)F)cc1C(F)F [Compound 8, (R)-6-(2-(Difluoromethyl)-4-(trifluoromethyl)phenyl)-5-methyl-N-(1-methylpiperidin-3-yl)pyridazin-3-amine]",4.31 nM
23,C[C@]1(O)C[C@@H](Nc2nnc(-c3ccc(C4CC4)cc3O)c3ccncc23)C1 [Compound 41],27 nM
24,Cc1cc(C(F)(F)F)cc(O)c1-c1nnc(N[C@H]2C[C@@](C)(O)C2)c2cnccc12 [Compound 45],4.9 nM
25,Cc1cc(N[C@H]2C[C@@](C)(O)C2)nnc1-c1cc(F)c2c(c1O)CCC2 [Compound 37],60 nM
26,Cc1cc(N[C@H]2C[C@@](C)(O)C2)nnc1-c1ccc2c(c1O)CCC2 [Compound 14],2.38 nM
27,C[C@]1(O)C[C@@H](Nc2nnc(-c3ccc4c(c3O)CCC4)c3ccncc23)C1 [Compound 39],1 nM

# Now from value to molecule:
row,EC50,Structure (SMILES)
1,18.7 nM,"Cc1cc(N[C@@H]2CCCN(C)C2)nnc1-c1cc2c(cc1O)CCC2 [Compound 6, (R)-6-(4-Methyl-6-((1-methylpiperidin-3-yl)amino)pyridazin-3-yl)-2,3-dihydro-1H-inden-5-ol]"
2,14.4 nM,Cc1cc(N[C@@H]2CCCN(C)C2)nnc1-c1c(O)ccc2c1CCC2 [Compound 17]
3,41.8 nM,"Cc1cc(N[C@@H]2CCCN(C)C2)nnc1-c1cc2ccccc2cc1O [Compound 9, (R)-3-(4-Methyl-6-((1-methylpiperidin-3-yl)amino)pyridazin-3-yl)naphthalen-2-ol]"
4,32.2 nM,Cc1cc(C(F)(F)F)cc(O)c1-c1nnc(N[C@@H]2CCCN(C)C2)c2c1COC2 [Compound 47]
5,22.6 nM,Cc1cc(N[C@@H]2CCCN(C)C2)nnc1-c1c(O)ccc2c1CCC2 [Compound 7]
6,129 nM,"Cc1cc(N[C@@H]2CCCN(C)C2)nnc1-c1ccncc1O [Compound 13, (R)-4-(4-Methyl-6-((1-methylpiperidin-3-yl)amino)pyridazin-3-yl)pyridin-3-ol]"
7,4.99 nM,"OCCN1CCC[C@@H](Nc2nnc(-c3ccc(C(F)(F)F)cc3O)c3c2CCCC3)C1 (racemic) [Compound 19, rac-(R)-2-(4-(1-(2-Hydroxyethyl)piperidin-3-yl)amino)-5,6,7,8-tetrahydrophthalazin-1-yl)-5-(trifluoromethyl)phenol]"
8,2.47 nM,"Cc1cc(N[C@@H]2CCCN(C)C2)nnc1-c1ccc(SC(F)(F)F)cc1O (racemic) [Compound 11, rac-(R2-(4-Methyl-6-((1-methylpiperidin-3-yl)amino)pyridazin-3-yl)-5-( (trifluoromethyl)thio)phenol]"
9,1.91 nM,"Cc1cc(N[C@@H]2CCCN(C)C2)nnc1-c1ccc2c(c1O)CCC2 [Compound 4, (R)-5-(4-Methyl-6-((1-methylpiperidin-3-yl)amino)pyridazin-3-yl)-2,3-dihydro-1H-inden-4-ol]"
10,41.8 nM,"Cc1cc(N[C@@H]2CCCN(C)C2)nnc1-c1cc2ccccc2cc1O [Compound 5, (R)-3-(4-Methyl-6-((1-methylpiperidin-3-yl)amino)pyridazin-3-yl)naphthalen-2-ol]"
11,1.4 nM,CN1CCC[C@@H](Nc2nnc(-c3c(O)cc(C(F)(F)F)cc3F)c3c2COC3)C1 [Compound 35]
12,1.23 nM,"CN1CCC[C@@H](Nc2nnc(-c3c(O)cccc3F)c3c2CCC3)C1 (racemic) [Compound 20, rac-3-Fluoro-2-(4-((R)-1-methylpiperidin-3-yl)amino)-6,7-dihydro-5H-cyclopenta[d]pyridazin-1-yl)phenol]"
13,4.75 nM,Cc1cc(N[C@@H]2CCCN(C)C2)nnc1-c1ccc2c(c1O)CCCC2 [Compound 27]
